How the values were obtained:
[1] = Antioxidant action examined by using stable free radicals: reduction activity of DPPH (M. S. Blois method), absorbance at 517 nm; assay type: biochemical; conditions: 1 mM DPPH in ethanol, after 20 minutes, difference from solvent control (0.5% or less DMF), read-out: 50% radical eliminating concentration
Procedure: Test Example 1 (Antioxidant Action Examined by Using Stable Free Radicals)
Reduction activity of α,α-diphenyl-β-picrylhydrazyl (DPPH) which was a stable free radical was examined according to the M. S. Blois method (nature, vol. 181, page 1199, 1958) and used as an index to antioxidant action. Thus, specimens were added to 3 ml of a 1 mM DPPH solution in ethanol, and absorbance at a wavelength of 517 nm was measured using a spectrophotometer after 20 minutes. The difference in absorbance from the solvent control [0.5% or less of dimethylformamide (DMF)]was taken as the reduction activity.

[2] = Effects on formazan formation in the xanthine-xanthine oxidase-Nitrotetrazolium Blue system (superoxide anion radicals); assay type: biochemical; conditions: for Inhibition ratio (%) of formazan formation: pH 7.8, 30° C., 10 min; for inhibition of formazan formation (in words): from Table-4, 0.5 mM and 4 mM
Procedure: Test Example 2 (Effects on Formazan Formation in the Xanthine-xanthine Oxidase-Nitrotetrazolium Blue System)
Specimens were added to a 0.05 M phosphoric acid buffer solution (pH 7.8) containing xanthine, EDTA 2Na and Nitrotetrazolium Blue (NTB) so as to provide the respective final concentrations of 5×10^-5 M, 1×10^-4 M and 5×10^-4 M and warmed at 30° C. for 30 minutes. Xanthine oxidase (manufactured by Sigma Corp.) was added, and the resulting mixtures were warmed at 30° C. for 10 minutes to colorimetrically determine formazan formed by superoxide anion radicals. The inhibition ratio of formazan formation was determined from the results at concentrations of 0.5 mM and 4 mM of each specimen.

Compound | IC50 [1] [µM] | also measured
CCCCOC1=C(O)[C@@H]([C@@H]2COC(C)(C)O2)OC1=O [Compound 201] | 14 | Inhibition ratio (%) of formazan formation ([2]; 0.5 mM): 9.1%; Inhibition ratio (%) of formazan formation ([2]; 4 mM): 19.1%; inhibition of formazan formation (in words) [2]: remarkably inhibited formazan formation
CCOC(=O)CCCOC1=C(O)[C@@H]([C@@H]2COC(C)(C)O2)OC1=O [Compound 202] | 16 | –
CC1(C)OC[C@@H]([C@H]2OC(=O)C(OCCCC(=O)O)=C2O)O1 [Compound 203] | 28 | –
CCOC(=O)C(C)OC1=C(O)C(C2COC(C)(C)O2)OC1=O (stereo not shown) [Compound 204] | 25 | –
CCCCOC(=O)COC1=C(O)[C@@H]([C@@H]2COC(C)(C)O2)OC1=O [Compound 205] | 30 | –
CC(=O)COC1=C(O)[C@@H]([C@@H]2COC(C)(C)O2)OC1=O [Compound 206, L-5,6-O-isopropylidene-2-O-methylcarbomethylascorbic acid] | 14 | Inhibition ratio (%) of formazan formation ([2]; 0.5 mM): 17.8%; Inhibition ratio (%) of formazan formation ([2]; 4 mM): 55.5%; inhibition of formazan formation (in words) [2]: remarkably inhibited formazan formation
CCCCCCCCCCCCCCCCCCOC1=C(O)[C@@H]([C@@H](O)CO)OC1=O [Compound 301] | 28 | –
CCCCCCCCCCCCOC1=C(O)[C@@H]([C@@H](O)CO)OC1=O [Compound 302] | 26 | –
CCCCCCCCOC1=C(O)[C@@H]([C@@H](O)CO)OC1=O [Compound 303] | 26 | –
CCCCOC1=C(O)[C@@H]([C@@H](O)CO)OC1=O [Compound 304] | 17 | –
O=C1O[C@H]([C@@H](O)CO)C(O)=C1OCc1ccccc1 [Compound 305] | 29 | –
CCOC(=O)CCCOC1=C(O)[C@@H]([C@@H](O)CO)OC1=O [Compound 306] | 29 | –
O=C(O)CCCOC1=C(O)[C@@H]([C@@H](O)CO)OC1=O [Compound 307] | 33 | –
CCOC(=O)C(C)OC1=C(O)[C@@H]([C@@H](O)CO)OC1=O (stereo partly shown) [Compound 308] | 25 | –
CCCCOC(=O)COC1=C(O)[C@@H]([C@@H](O)CO)OC1=O [Compound 309] | 28 | –
CC(=O)COC1=C(O)[C@@H]([C@@H](O)CO)OC1=O [Compound 310, L-2-O-methylcarbomethylascorbic acid] | 17 | –

Reference: patent US5011949A, “Ascorbic acid derivative” (Nippon Hypox Laboratories, Inc., priority 1989, dated 1991)
